Measured values reported in patent US7858621B2 (Amorepacific Corporation, priority 2006, dated 2010).

molecular target: T1, vanilloid receptor (Rattus norvegicus, UniProt O35433); assay: 45Ca influx test in cultured neonatal rat DRG neurons, inhibition of capsaicin response; assay type: cell-based; details: neonatal rat DRG neurons, capsaicin 0.5 μM, 45Ca influx; read-out: Antagonist Calcium Uptake Test (IC50)
T1 construct: DRG nerve cells from the primary culture of 2 days were equilibrated; endogenous in cells; host or cells: primary culture of dorsal root ganglion neurons from neonatal SD rats
Procedure: 1) Separation of Spinal Dorsal Root Ganglia (DRG) in Newborn Rats and Primary Culture Thereof
Neonatal (2-3 day old or younger than 2-3 day old) SD rats were put in ice for 5 minutes to anesthetize and disinfected with 70% ethanol. […] The DRG were incubated sequentially at 37° C. for 30 mins in 200 U/ml collagenase and 2.5 mg/ml trypsin, separately. The ganglia were washed twice with DME/F12 medium supplemented with 10% horse serum, triturated through a fire-polished Pasteur pipette, filtered through Nitex 80 membrane to obtain single cell suspension and the suspension was washed once more. This was subjected to centrifugation, then resuspended in cell culture medium at certain level of cell density. As the cell culture medium, DME/F12 medium supplemented with 10% horse serum was diluted with identical medium conditioned by C6 glioma cells 2 days on a confluent monolayer (1:1), and NGF (Nerve Growth Factor) was added to adjust 200 ng/ml as final concentration. After the cells were grown 2 days in medium where cytosine arabinoside (Ara-C, 100 μM) was added to kill dividing nonneuronal cells, medium was changed to one without Ara-C. The resuspended cells were plated at a density of 1500-2000 neurons/well onto Terasaki plates previously coated with 10 μg/ml poly-D-ornithine.
2) ^45Ca Influx Experiments
DRG nerve cells from the primary culture of 2 days were equilibrated by washing 4 times with HEPES (10 mM, pH 7.4)-buffered Ca^2+, Mg^2+-free HBSS (H-HBSS). The solution in each well was removed from the individual well. Medium containing the test compound plus capsaicin (final concentration 0.5 μM) and ^45Ca (final concentration 10 μCi/ml) in H-HBSS was added to each well and incubated at room temperature for 10 mins. Terasaki plates were washed five times with H-HBSS and dried at room temperature. To each well, 0.3% SDS (10 μl) was added to elute ^45Ca. After the addition of scintillation cocktail of into each well, the amount of ^45Ca influx into neuron was measured by counting radioactivity.

T1 sequence (O35433 whole entry): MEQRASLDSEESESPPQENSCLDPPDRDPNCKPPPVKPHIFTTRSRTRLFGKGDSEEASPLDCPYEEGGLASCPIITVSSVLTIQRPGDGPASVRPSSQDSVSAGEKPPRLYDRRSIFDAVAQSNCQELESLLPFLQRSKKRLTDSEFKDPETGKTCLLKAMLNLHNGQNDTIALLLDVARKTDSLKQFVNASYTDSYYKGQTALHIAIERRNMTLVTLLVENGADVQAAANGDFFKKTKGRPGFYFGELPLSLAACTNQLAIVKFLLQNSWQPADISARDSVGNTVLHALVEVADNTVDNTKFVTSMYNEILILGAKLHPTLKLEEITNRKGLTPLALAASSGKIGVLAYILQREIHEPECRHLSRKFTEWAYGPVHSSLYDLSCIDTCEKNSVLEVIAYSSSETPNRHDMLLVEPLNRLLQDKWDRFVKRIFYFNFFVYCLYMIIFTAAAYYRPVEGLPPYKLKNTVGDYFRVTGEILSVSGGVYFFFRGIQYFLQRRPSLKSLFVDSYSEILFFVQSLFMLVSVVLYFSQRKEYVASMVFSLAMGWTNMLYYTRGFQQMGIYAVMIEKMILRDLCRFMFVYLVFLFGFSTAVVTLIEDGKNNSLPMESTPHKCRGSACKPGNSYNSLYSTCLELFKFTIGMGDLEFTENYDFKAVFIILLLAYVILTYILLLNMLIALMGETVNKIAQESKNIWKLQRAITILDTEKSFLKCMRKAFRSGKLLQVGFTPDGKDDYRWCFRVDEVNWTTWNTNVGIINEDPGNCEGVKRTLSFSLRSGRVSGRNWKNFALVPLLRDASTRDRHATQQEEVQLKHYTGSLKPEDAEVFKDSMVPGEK

Molecule | IC50
2-(2-piperid-1-yl-6-chloro-pyridinyl-3-yloxy)-N-(3-fluoro-4-methanesulfonylamino-benzyl)-acetamide [Example 13] | 3500 nM
C#Cc1cc(CNC(=O)/C=C/c2ccc(C(F)(F)F)nc2N2CCC[C@H]2CO)cc(F)c1NS(C)(=O)=O (stereo in doubt) [Example 83, N-(3-Ethynyl-5-fluoro-4-methansulfonylamino-benzyl)-3-[2-(2-hydroxymethyl-pyrrolidin-1-yl)-6-trifluoromethyl-pyridin-3-yl]-acrylamide] | 2100 nM
C#Cc1cc(CNC(=O)/C=C/c2ccc(C(C)(C)C)nc2)cc(F)c1NS(C)(=O)=O [Example 3, 3-(6-tert-Butyl-pyridin-3-yl)-N-(3-ethynyl-5-fluoro-4-methanesulfonylamino-benzyl)-acrylamide] | 520 nM
CS(=O)(=O)Nc1ccc(CNC(=O)/C=C/c2ccc(C(F)(F)F)nc2N2CCOCC2)cc1F [Example 5, N-(3-Fluoro-4-methanesulfonylamino-benzyl)-3-(2-morpholin-4-yl-6-trifluoromethyl-pyridin-3-yl)-acrylamide] | 1500 nM
C=Cc1cc(CNC(=O)/C=C/c2ccc(C(F)(F)F)nc2N2CCOCC2)ccc1NS(C)(=O)=O [Example 6, N-(4-Methanesulfonylamino-3-vinyl-benzyl)-3-(2-morpholin-4-yl-6-trifluoromethyl-pyridin-3-yl)-acrylamide] | 300 nM
Cc1cc(CNC(=O)/C=C/c2ccc(C(F)(F)F)nc2N2CCOCC2)cc(F)c1NS(C)(=O)=O [Example 8, N-(3-Fluoro-4-methanesulfonylamino-5-methyl-benzyl)-3-(2-morpholin-4-yl-6-trifluoromethyl-pyridin-3-yl)-acrylamide] | 420 nM
C=Cc1cc(CNC(=O)/C=C/c2ccc(C(C)(C)C)nc2)cc(F)c1NS(C)(=O)=O [Example 10, 3-(6-tert-Butyl-pyridin-3-yl)-N-(3-fluoro-4-methanesulfonylamino-5-vinyl-benzyl)-acrylamide] | 280 nM
C#Cc1cc(CNC(=O)/C=C/c2ccc(C(C)(C)C)nc2OC)cc(F)c1NS(C)(=O)=O [Example 11, 3-(6-tert-Butyl-2-methoxy-pyridin-3-yl)-N-(3-ethynyl-5-fluoro-4-methanesulfonylamino-benzyl)-acrylamide] | 290 nM
C#Cc1cc(CNC(=O)/C=C/c2ccc(Cl)nc2)cc(F)c1NS(C)(=O)=O [Example 14, 3-(6-Chloro-pyridin-3-yl)-N-(3-ethynyl-5-fluoro-4-methanesulfonylamino-benzyl)-acrylamide] | > 10000 nM
C#Cc1cc(CNC(=O)/C=C/c2ccc(Br)nc2)cc(F)c1NS(C)(=O)=O [Example 15, 3-(6-Bromo-pyridin-3-yl)-N-(3-ethynyl-5-fluoro-4-methanesulfonylamino-benzyl)-acrylamide] | 5900 nM
CC(C)(C)c1cc(C(F)(F)F)c(/C=C/C(=O)NCc2ccc(NS(C)(=O)=O)c(F)c2)cn1 [Example 17, 3-(6-tert-Butyl-4-trifluoromethyl-pyridin-3-yl)-N-(3-fluoro-4-methanesulfonylamino-benzyl)-acrylamide] | 570 nM
C#Cc1cc(CNC(=O)/C=C/c2cnc(C(C)(C)C)cc2C(F)(F)F)cc(F)c1NS(C)(=O)=O [Example 18, 3-(6-tert-Butyl-4-trifluoromethyl-pyridin-3-yl)-N-(3-ethynyl-5-fluoro-4-methanesulfonylamino-benzyl)-acrylamide] | 130 nM
CS(=O)(=O)Nc1ccc(CNC(=O)/C=C/c2ccc(N3CCCCC3)nc2)cc1F [Example 19, N-(3-Fluoro-4-methanesulfonylamino-benzyl)-3-(6-piperid-1-yl-pyridinyl-3-yl)-acrylamide] | > 10000 nM
CS(=O)(=O)Nc1ccc(CNC(=O)/C=C/c2ccc(Br)nc2)cc1F [Example 20, 3-(6-Bromo-pyridin-3-yl)-N-(3-fluoro-4-methanesulfonylamino-benzyl)-acrylamide] | > 10000 nM
CS(=O)(=O)Nc1c(F)cc(CNC(=O)/C=C/c2ccc(C(F)(F)F)nc2N2CCOCC2)cc1F [Example 21, N-(3,5-Difluoro-4-methanesulfonylamino-benzyl)-3-(2-morpholin-4-yl-6-trifluoromethyl-pyridin-3-yl)-acrylamide] | 1100 nM
C#Cc1cc(CNC(=O)/C=C/c2ccc(C(F)(F)F)nc2N2CCCCC2)cc(F)c1NS(C)(=O)=O [Example 24, N-(3-Ethynyl-5-fluoro-4-methanesulfonylamino-benzyl)-3-(2-piperid-1-yl-6-trifluoromethyl-pyridinyl-3-yl)-acrylamide] | 340 nM
CS(=O)(=O)Nc1ccc(CNC(=O)/C=C/c2ccc(N3CCCC3)nc2)cc1F [Example 25, N-(3-Fluoro-4-methanesulfonylamino-benzyl)-3-(6-pyrrolidin-1-yl-pyridin-3-yl)-acrylamide] | > 10000 nM
CS(=O)(=O)Nc1ccc(CNC(=O)/C=C/c2ccc(C(F)(F)F)nc2N2CCCCC2)cc1F [Example 26, N-(3-Fluoro-4-methanesulfonylamino-benzyl)-3-(2-piperid-1-yl-6-trifluoromethyl-pyridinyl-3-yl)-acrylamide] | 1100 nM
CC(C)(C)c1ccc(OCC(=O)NCc2ccc(NS(C)(=O)=O)c(F)c2)cn1 [Example 29, 2-(6-tert-Butyl-pyridin-3-yloxy)-N-(3-fluoro-4-methanesulfonylamino-benzyl)-acetamide] | > 10000 nM
CC(C)(C)c1ccc(OCC(=O)NCc2ccc(NS(C)(=O)=O)c(F)c2)c(Cl)n1 [Example 30, 2-(6-tert-Butyl-2-chloro-pyridin-3-yloxy)-N-(3-fluoro-4-methanesulfonylamino-benzyl)-acetamide] | 3800 nM
Cc1ccc(OCC(=O)NCc2ccc(NS(C)(=O)=O)c(F)c2)c(CO)n1 [Example 31, N-(3-Fluoro-4-methanesulfonylamino-benzyl)-2-(2-hydroxymethyl-6-methyl-pyridin-3-yloxy)-acetamide] | > 10000 nM
CS(=O)(=O)Nc1ccc(CNC(=O)COc2ccc(C(F)(F)F)nc2)cc1F [Example 32, N-(3-Fluoro-4-methanesulfonylamino-benzyl)-2-(6-trifluoromethyl-pyridin-3-yloxy)-acetamide] | > 10000 nM
C#Cc1cc(CNC(=O)COc2ccc(Cl)nc2)cc(F)c1NS(C)(=O)=O [Example 35, 2-(6-Chloro-pyridin-3-yloxy)-N-(3-ethynyl-5-fluoro-4-methanesulfonylamino-benzyl)-acetamide] | > 10000 nM
CC(C)(C)c1ccc(/C=C/C(=O)NCc2ccc(NS(C)(=O)=O)c(F)c2)c(Br)n1 [Example 36, 3-(2-Bromo-6-tert-butyl-pyridin-3-yl)-N-(3-fluoro-4-methanesulfonylamino-benzyl)-acrylamide] | 180 nM
C#Cc1cc(CNC(=O)/C=C/c2ccc(C(C)(C)C)nc2Br)cc(F)c1NS(C)(=O)=O [Example 37, 3-(2-Bromo-6-tert-butyl-pyridin-3-yl)-N-(3-ethynyl-5-fluoro-4-methanesulfonylamino-benzyl)-acrylamide] | 59 nM
C#Cc1cc(CNC(=O)/C=C/c2ccc(C(F)(F)F)nc2N(CC)CC)cc(F)c1NS(C)(=O)=O [Example 38, 3-(2-Diethylamino-6-trifluoromethyl-pyridin-3-yl)-N-(3-ethynyl-5-fluoro-4-methanesulfonylamino-benzyl)-acrylamide] | 220 nM
